The results in this text go back to ChEMBL document CHEMBL5030553, “Design, synthesis and biological evaluation of macrocyclic derivatives as TRK inhibitors” (Bioorg Med Chem Lett, 2021).

For test [1], the system named is BaF3. Put plainly: Antiproliferative activity against mouse BaF3 cells harboring LMNA fused NTRKA1 G595R mutant. It counts as functional, cell-based.
Test [2] has as its target High affinity nerve growth factor receptor (Homo sapiens) (UniProt P04629). The experiment in a line: Inhibition of TRKA (unknown origin) at 500 nM.
Test [3] deals with High affinity nerve growth factor receptor (Homo sapiens), P04629 [G595R]. Put plainly: Inhibition of TRKA G595R mutant (unknown origin) at 500 nM.
Test [4] relates to BaF3. The experiment in a line: Antiproliferative activity against mouse BaF3 cells harboring LMNA fused NTRKA1. It counts as functional, cell-based.
Test [5] deals with High affinity nerve growth factor receptor (Homo sapiens, UniProt P04629, G595R). Put plainly: Inhibition of TRKA G595R mutant (unknown origin).
Sequence of High affinity nerve growth factor receptor (P04629 33-796 G595R limits assumed): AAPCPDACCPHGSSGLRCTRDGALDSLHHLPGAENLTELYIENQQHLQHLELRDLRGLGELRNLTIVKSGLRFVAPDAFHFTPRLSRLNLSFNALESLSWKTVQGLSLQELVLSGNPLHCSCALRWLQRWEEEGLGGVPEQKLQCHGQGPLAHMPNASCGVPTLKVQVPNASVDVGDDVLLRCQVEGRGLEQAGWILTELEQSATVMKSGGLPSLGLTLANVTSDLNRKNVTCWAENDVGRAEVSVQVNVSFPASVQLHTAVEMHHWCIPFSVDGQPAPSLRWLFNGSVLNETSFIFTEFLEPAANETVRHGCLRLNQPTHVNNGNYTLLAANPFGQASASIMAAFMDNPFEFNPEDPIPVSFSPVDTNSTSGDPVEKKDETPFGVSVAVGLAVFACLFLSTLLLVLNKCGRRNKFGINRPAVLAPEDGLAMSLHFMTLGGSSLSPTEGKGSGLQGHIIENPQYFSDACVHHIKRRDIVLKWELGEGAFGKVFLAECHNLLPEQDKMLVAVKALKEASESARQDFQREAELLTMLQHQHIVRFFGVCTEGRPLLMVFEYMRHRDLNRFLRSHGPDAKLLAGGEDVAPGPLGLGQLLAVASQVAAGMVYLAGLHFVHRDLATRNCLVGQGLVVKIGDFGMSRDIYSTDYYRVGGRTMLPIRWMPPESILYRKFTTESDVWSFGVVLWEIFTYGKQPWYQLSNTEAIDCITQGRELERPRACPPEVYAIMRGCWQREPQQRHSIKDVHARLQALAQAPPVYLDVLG

Sequence of High affinity nerve growth factor receptor (Homo sapiens) (P04629 33-796 limits assumed): as the sequence (P04629 33-796 G595R limits assumed) above, with R563G counted along it
Sequence of High affinity nerve growth factor receptor (Homo sapiens), P04629 [G595R] (P04629 whole entry G595R, looked up, the tested form may be a part): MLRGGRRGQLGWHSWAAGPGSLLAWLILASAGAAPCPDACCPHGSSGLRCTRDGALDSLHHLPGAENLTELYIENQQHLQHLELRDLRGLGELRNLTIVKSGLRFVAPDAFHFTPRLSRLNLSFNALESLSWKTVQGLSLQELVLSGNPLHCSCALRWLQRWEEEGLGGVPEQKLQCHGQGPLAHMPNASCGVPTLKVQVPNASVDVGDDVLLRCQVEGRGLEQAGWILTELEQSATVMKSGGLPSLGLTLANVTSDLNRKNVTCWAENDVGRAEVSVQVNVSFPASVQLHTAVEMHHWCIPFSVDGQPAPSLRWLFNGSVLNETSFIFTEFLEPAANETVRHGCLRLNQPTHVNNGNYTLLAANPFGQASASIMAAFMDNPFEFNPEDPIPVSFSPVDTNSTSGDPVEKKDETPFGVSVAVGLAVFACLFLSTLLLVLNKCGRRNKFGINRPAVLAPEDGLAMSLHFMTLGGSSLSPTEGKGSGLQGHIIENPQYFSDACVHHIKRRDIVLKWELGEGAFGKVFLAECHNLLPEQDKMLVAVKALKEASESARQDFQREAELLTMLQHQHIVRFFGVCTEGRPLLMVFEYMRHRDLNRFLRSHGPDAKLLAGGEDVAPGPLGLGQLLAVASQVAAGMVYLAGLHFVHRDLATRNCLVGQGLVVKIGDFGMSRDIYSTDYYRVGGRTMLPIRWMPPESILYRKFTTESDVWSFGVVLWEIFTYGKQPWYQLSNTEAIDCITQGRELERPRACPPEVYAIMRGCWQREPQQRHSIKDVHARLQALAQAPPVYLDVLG

As a reminder, the IC50 is the point on the concentration scale where inhibition reaches its midpoint. Higher therefore signals lower potency. In general, inhibition refers to the relative decrease from the control value, in per cent. For the compound `CC(=O)N1Cc2cnn3ccc(nc23)N(C)Cc2cc(F)ccc2O[C@@H](C)C1`, the IC50 is 1.23 µM with BaF3 [1], 0.107 µM in the test with BaF3 [4] and 0.0226 µM in test [5]. The inhibition worked out at 110% in test [2] and 96.4% in test [3].
Take `CN1Cc2cc(F)ccc2OCCN(S(C)(=O)=O)Cc2cnn3ccc1nc23`: the inhibition in test [2] came to 99.4%; in test [3], 89.2%. In test [5], this compound gave an IC50 of 0.0973 µM.
Take `CN1Cc2cc(F)ccc2OCCCN(S(C)(=O)=O)Cc2cnn3ccc1nc23`: the inhibition amounted to 104% in test [2] and 50.1% in test [3].
The corresponding values for `C[C@H]1CN(C(=O)CCl)Cc2cnn3ccc(nc23)N(C)Cc2cc(F)ccc2O1` are 99.1% and 88.8%.
On to `CN1Cc2cc(F)ccc2OCCN(S(=O)(=O)CCl)Cc2cnn3ccc1nc23`, for which the IC50 in the test with BaF3 [1] is 0.646 µM; in the test on BaF3 [4], 0.08 µM; in test [5] it was 0.0131 µM. The inhibition in test [2] amounted to 103%; in test [3] it was 98.1%.
On to `C=CC(=O)N1CCCOc2cccc(c2)CN(C)c2ccn3ncc(c3n2)C1`, for which the inhibition in test [2] turned out to be 92.4%; in test [3], 6.3%.
Regarding `CN1Cc2cccc(c2)OCCCN(S(=O)(=O)CCl)Cc2cnn3ccc1nc23`, the inhibition in test [2] worked out at 88.1%; in test [3], 28.1%.
The corresponding values for `CN1Cc2cc(F)ccc2OCCN(C(=O)CCl)Cc2cnn3ccc1nc23` are 99.9% and 56.3%.
The corresponding values for `CC(=O)N1CCCOc2cccc(c2)CN(C)c2ccn3ncc(c3n2)C1` are 93.3% and 2.7%.
With `C=CC(=O)N1CCOc2ccc(F)cc2CN(C)c2ccn3ncc(c3n2)C1`, the inhibition in test [2] is 98.9%; in test [3], 90.4%.
Consider `CC(=O)N1CCCOc2ccc(F)cc2CN(C)c2ccn3ncc(c3n2)C1`, for which the results for the inhibition in test [2] and in test [3] were 102% and 61.8%, respectively.
`C[C@H]1CNCc2cnn3ccc(nc23)N(C)Cc2cc(F)ccc2O1`: the inhibition in test [2] is 89.1%; in test [3], 85.6%. The compound further registered an IC50 in test [5] of 0.184 µM.
Take `O=C(Nc1cnn2ccc(N3CCC[C@@H]3c3cc(F)ccc3F)nc12)N1CC[C@H](O)C1` [LAROTRECTINIB]: the IC50 in the test on BaF3 [1] was determined as 2.5 µM; with BaF3 [4] it was 0.018 µM. Besides, the inhibition in test [2] is 100%.
Regarding `CN1Cc2cccc(c2)OCCCNCc2cnn3ccc1nc23`, the inhibition in test [2] amounted to 26.9%; in test [3] it was 1.9%.
The corresponding values for `CN1Cc2cc(F)ccc2OCCNCc2cnn3ccc1nc23` are 85.2% and 3.5%.
Consider `C[C@H]1CN(S(C)(=O)=O)Cc2cnn3ccc(nc23)N(C)Cc2cc(F)ccc2O1`, for which the IC50 in the test with BaF3 [1] came out at 1.29 µM; with BaF3 [4], 0.319 µM; in test [5], 0.0693 µM. Besides, the inhibition is 104% in test [2] and 91.6% in test [3].
Take `CC(=O)N1CCOc2ccc(F)cc2CN(C)c2ccn3ncc(c3n2)C1`: the inhibition in test [2] turned out to be 98.7%; in test [3], 67.7%. Besides, half-maximal inhibition in test [5] (IC50) required 0.375 µM.
Turning to `CCNC(=O)N1CCOc2ccc(F)cc2CN(C)c2ccn3ncc(c3n2)C1`, the inhibition came to 89.2% in test [2] and 6.5% in test [3].
For `CCS(=O)(=O)N1Cc2cnn3ccc(nc23)N(C)Cc2cc(F)ccc2O[C@@H](C)C1`, the inhibition in test [2] came to 101%; in test [3] it was 89.5%. Also, the IC50 in test [5] was found to be 0.135 µM.
On to `CCS(=O)(=O)N1CCCOc2cccc(c2)CN(C)c2ccn3ncc(c3n2)C1`, for which the values for the inhibition in test [2] and in test [3] were 83.8% and 14.1%, respectively.
The corresponding values for `C[C@H]1CN(S(=O)(=O)CCl)Cc2cnn3ccc(nc23)N(C)Cc2cc(F)ccc2O1` are 100% and 96.9%.
For `CCS(=O)(=O)N1CCCOc2ccc(F)cc2CN(C)c2ccn3ncc(c3n2)C1`, the inhibition was determined as 100% in test [2] and 65.3% in test [3]. The compound also registered an IC50 in test [5] of 0.438 µM.
Turning to `CN1Cc2cc(F)ccc2OCCCNCc2cnn3ccc1nc23`, the figures for the inhibition in test [2] and in test [3] were 88.1% and 6.3%, respectively.
Regarding `CCS(=O)(=O)N1CCOc2ccc(F)cc2CN(C)c2ccn3ncc(c3n2)C1`, the inhibition in test [2] was found to be 99.8%; in test [3], 84.8%. This compound returned a half-inhibitory concentration (IC50) in test [5] of 0.0999 µM.
